{"source": "patent US4837228A", "about": "“Antiinflammatory and antimicrobial compounds and compositions” (The University of Mississippi, priority 1982, dated 1989)", "key": {"Saccharomyces cerevisiae": {"system": "Saccharomyces cerevisiae", "assay": "agar well diffusion assay, S. cerevisiae", "assay_type": "cell-based", "settings": "from edge of agar well", "procedure": "(§1) Both qualitative and quantitative screens were performed. Qualitative screening was accomplished using the agar well diffusion assay technque while quantitative screening was accomplished by the two-fold (broth) serial dilution method to determine the minimum inhibitory concentration (MIC). Innoculation was accomplished with one loop-full of a 1:10 dilution of the 24-hour-old broth culture, (fungal cultures and M.smegmatis more often required 48 to 72 hours of incubation) of the test organisms in sterile water. Streptomycin sulfate was used as a positive control for antibacterial activity while amphitericin B was used as an antifungal positive control. Organisms utilized in the screens included gram-positive, gram-negative, and acid-fast bacteria as well as different types of fungi. […] An intermediate type activity is seen where R is hydrogen. However, where R is lengthened up to C15 a decrease in activity was noted. Total saturation of the two double bonds in the compounds having a methyl side chain lead, in most cases, to an increase in both antifungal and antibacterial activity."}, "Pseudomonas aeruginosa": {"system": "Pseudomonas aeruginosa", "assay": "agar well diffusion assay, Ps. aeruginosa", "assay_type": "cell-based", "settings": "from edge of agar well", "procedure": "as §1"}, "Mycobacterium smegmatis": {"system": "Mycobacterium smegmatis", "assay": "MIC, two-fold (broth) serial dilution, M. smegmatis", "assay_type": "cell-based", "settings": "Mycolicibacterium smegmatis, read-out: MIC", "procedure,_shortened": "(§2)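 Qualitative: agar well diffusion. Quantitative: two-fold (broth) serial dilution → MIC. Inoculum = 1 loop-full, 1:10 dilution of 24-h broth culture in sterile water; fungi/M. smegmatis 48–72 h incubation. Controls: streptomycin sulfate (antibacterial), amphotericin B (antifungal).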"}, "[1]": {"system": "Trichophyton mentagrophytes", "assay": "agar well diffusion assay, T. mentagrophytes", "assay_type": "cell-based", "settings": "one entry across 48 hr and 72 hr", "procedure": "as §1"}, "Staphylococcus aureus": {"system": "Staphylococcus aureus", "assay": "MIC, two-fold (broth) serial dilution, S. aureus", "assay_type": "cell-based", "settings": "Staphylococcus aureus, read-out: MIC", "procedure,_shortened": "as §2"}, "[2]": {"system": "carrageenan-induced rat paw edema", "assay": "carrageenan-induced rat paw edema test, oral gavage", "assay_type": "in vivo", "set-up": "key to mean difference in volume (MDV): ml; post-injection minus pre-injection mean paw volume", "settings": "for inhibition at 120 mg/kg / inhibition at 240 mg/kg / inhibition at 480 mg/kg: Rattus norvegicus, po, Table 5; for inhibition at 120 mg/kg: read-out: inhibition of carrageenan-induced rat paw edema", "procedure": "In the Rat Paw Edema Test, the rats utilized were divided into test groups of six to eight animals, weighed and marked so that individual rats could be identified; one hour before testing all rats were given a 700 mg/kg intraperitoneal injection of ethyl urethane in distilled water to render them tractable during testing. […] Negative control groups received the vehicle; while positive control groups received a dose of phenylbutazone (PBZ) as shown in Table II. Test compounds were given at doses of 60, 120, 240 and 480 mg/kg. The positive controls were given at 120 mg/kg and 60 mg/kg. Phenylbutazone was prepared for injection by suspending it in normal saline using Tween 60. The rats were then held in group cages for 30 minutes. The volume of the left hind paw was measured using a mercury displacement pleysmograph. The paw is dipped into the mercury until the mercury touches the line above the ankle. Mercury is then withdrawn until the mercury returns to its original level. The amount of mercury removed is measured in milliliters (ml). The mercury can be measured accurately to 0.01 ml. This left hind paw was then injected with 0.1 ml of a 5% w/v solution of viscous carageenan in normal saline. The injection was given between the metatarsal bones using a 27 gauge needle, and the rats then held in group cages for 3 hours. The volume of the left hind paws was measured again in the pleysmograph. The results were computed in the following manner:\na. A mean is taken for both the pre-injection and post-injection paw volume of each test group.\nb. The mean difference in volume (MDV) for each test group is computed by subtracting the pre-injection means from the post-injection mean.\nc. The percent of control is computed for each test [formula] The percent of control is used to compare the efficacy of the various drug treatments.\nd. The percent increase in paw volume is calculated for each group as: [formula] The percent increase is used to compare the amount of edma observed in one experiment to the amount of edma observed in other experiments.\n[…] The test was conducted twice, once with nonfasted rats and once with rats that had been fasted during the 24 hour period prior to dosing. The 60 mg/kg phenylbutazone control group was not used in the test with fasted animals. Tween 60 in normal saline was the vehicle control for the non-fasted rats and normal saline was the vehicle control for the fasted rats."}, "[3]": {"system": "Trichophyton mentagrophytes", "assay": "MIC, two-fold (broth) serial dilution, T. mentagrophytes", "assay_type": "cell-based", "procedure,_shortened": "as §2"}, "Candida albicans": {"system": "Candida albicans", "assay": "agar well diffusion assay, C. albicans", "assay_type": "cell-based", "settings": "from edge of agar well", "procedure": "as §1"}, "[4]": {"settings": "Table 6, 120 mg/kg oral, non-fasted rats"}, "[5]": {"settings": "Table 6, 240 mg/kg oral, non-fasted rats"}, "[6]": {"settings": "Table 6, 480 mg/kg oral, non-fasted rats"}, "[7]": {"settings": "Table 7, 120 mg/kg oral, fasted rats, doses approximate"}, "[8]": {"settings": "Table 7, 240 mg/kg oral, fasted rats, doses approximate"}, "[9]": {"settings": "Table 7, 480 mg/kg oral (given following saline infusion), fasted rats, doses approximate"}}, "note": "Entries after “also recorded” stand apart in the source; their conditions may differ. Read-outs that look alike come from different tables or passages of the source.", "data": [{"smiles": "CCCCCc1cc(O)c2c(c1)OC(C)(CCC=C(C)C)C=C2", "note": "(stereo not shown) [CBC (I), 2-methyl-2(4'methyl-pent-3'-enyl)-5-hydroxy-7-pentyl chromene]", "values": [{"measurement": "width of inhibition zone", "setting": "Saccharomyces cerevisiae; 48 hr", "value": "8.", "unit": "mm"}, {"measurement": "width of inhibition zone", "setting": "Saccharomyces cerevisiae; 72 hr", "value": "8.", "unit": "mm"}, {"measurement": "width of inhibition zone", "setting": "Pseudomonas aeruginosa; 24 hr", "value": "1.", "unit": "mm"}, {"measurement": "width of inhibition zone", "setting": "Pseudomonas aeruginosa; 48 hr", "value": "1.", "unit": "mm"}, {"measurement": "MIC", "setting": "Mycobacterium smegmatis; 24 h", "value": 12.5, "unit": "µg/mL"}, {"measurement": "MIC", "setting": "Mycobacterium smegmatis; 48 h", "value": 25, "unit": "µg/mL"}, {"measurement": "agar well diffusion result in words", "setting": "[1]", "value": "No growth"}, {"measurement": "MIC", "setting": "Staphylococcus aureus; 24 h", "value": 1.56, "unit": "µg/mL"}, {"measurement": "MIC", "setting": "Staphylococcus aureus; 48 h", "value": 1.56, "unit": "µg/mL"}, {"measurement": "inhibition at 120 mg/kg", "setting": "[2]; 120 mg/kg oral, fasted rats, N.S.", "value": 35, "unit": "%"}, {"measurement": "inhibition at 120 mg/kg", "setting": "[2]; 120 mg/kg oral, nonfasted rats", "value": 21, "unit": "%"}, {"measurement": "inhibition at 240 mg/kg", "setting": "[2]; 240 mg/kg oral, fasted rats, * P = 0.01", "value": 67, "unit": "%"}, {"measurement": "inhibition at 240 mg/kg", "setting": "[2]; 240 mg/kg oral, nonfasted rats, ** P = 0.05", "value": 34, "unit": "%"}, {"measurement": "inhibition at 480 mg/kg", "setting": "[2]; 480 mg/kg oral, fasted rats, ** P = 0.05", "value": 55, "unit": "%"}, {"measurement": "inhibition at 480 mg/kg", "setting": "[2]; 480 mg/kg oral, nonfasted rats, * P = 0.01", "value": 50, "unit": "%"}, {"measurement": "mean difference in volume (MDV)", "setting": "[2]; [4]", "value": 0.496}, {"measurement": "percent increase in paw volume", "setting": "[2]; [4]", "value": 41.311, "unit": "%"}, {"measurement": "percent of control", "setting": "[2]; [4]", "value": 79.400, "unit": "%"}, {"measurement": "mean difference in volume (MDV)", "setting": "[2]; [5]", "value": 0.412}, {"measurement": "percent increase in paw volume", "setting": "[2]; [5]", "value": 38.372, "unit": "%"}, {"measurement": "percent of control", "setting": "[2]; [5]", "value": 66.000, "unit": "%"}, {"measurement": "mean difference in volume (MDV)", "setting": "[2]; [6]", "value": 0.315}, {"measurement": "percent increase in paw volume", "setting": "[2]; [6]", "value": 29.200, "unit": "%"}, {"measurement": "percent of control", "setting": "[2]; [6]", "value": 50.400, "unit": "%"}, {"measurement": "mean difference in volume (MDV)", "setting": "[2]; [7]", "value": 0.409}, {"measurement": "percent increase in paw volume", "setting": "[2]; [7]", "value": 31.382, "unit": "%"}, {"measurement": "percent of control", "setting": "[2]; [7]", "value": 65.400, "unit": "%"}, {"measurement": "mean difference in volume (MDV)", "setting": "[2]; [8]", "value": 0.209}, {"measurement": "percent increase in paw volume", "setting": "[2]; [8]", "value": 15.981, "unit": "%"}, {"measurement": "percent of control", "setting": "[2]; [8]", "value": 53.400, "unit": "%"}, {"measurement": "mean difference in volume (MDV)", "setting": "[2]; [9]", "value": 0.281}, {"measurement": "percent increase in paw volume", "setting": "[2]; [9]", "value": 22.321, "unit": "%"}, {"measurement": "percent of control", "setting": "[2]; [9]", "value": 45.000, "unit": "%"}, {"measurement": "antiinflammatory activity compared with PBZ in words", "setting": "[2]; oral, listed as CBC", "value": "about equally effective at 120 mg/kg in the fasted rats; also recorded: generally more effective in inhibiting edema than was PBZ"}, {"measurement": "MIC", "setting": "[3]; 48 hr", "value": 25.0, "unit": "µg/mL"}, {"measurement": "MIC", "setting": "[3]; 72 hr", "value": 50.0, "unit": "µg/mL"}, {"measurement": "MIC", "setting": "[3]; Trichophyton mentagrophytes, 48 h, read-out: MIC", "value": 25, "unit": "µg/mL"}, {"measurement": "MIC", "setting": "[3]; Trichophyton mentagrophytes, 72 h, read-out: MIC", "value": 50, "unit": "µg/mL"}, {"measurement": "width of inhibition zone", "setting": "Candida albicans; 48 hr", "value": 4.0, "unit": "mm"}, {"measurement": "width of inhibition zone", "setting": "Candida albicans; 72 hr", "value": 4.0, "unit": "mm"}]}]}
